From ChEMBL document CHEMBL1201862, “PubChem BioAssay data set” (2004)
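Compound exposure: 48 hours, 5 concentrations, 96-well plates. The concentration for 50% growth inhibition is given as GI50.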 The source made the active and inactive calls. Cut-off read from the data, not from the text of the source: active = GI50 up to about 1.1 µM and inactive = higher.

Tests used:
Assay in all cases: DTP human tumour cell line panel, 48 h
[1] = system: KM-20L2
[2] = system: RXF 631
[3] = system: SNB-78
[4] = system: MDA-MB-231
[5] = system: SR
[6] = system: LXFL 529
[7] = system: NCI-H226
[8] = system: T47D

Measured: GI50

COc1ccc(C2C(C(=O)O)=C(CO)Oc3cc4c(cc32)OCO4)cc1 (centres undefined)
inactive: [1] > 100 µM | [2] > 100 µM | [3] > 100 µM

O=c1[nH]nc(NCc2ccccc2)c2nnn(Cc3ccccc3)c12
inactive: [4] > 100 µM | [5] > 100 µM

N=S(=O)(c1ccccc1)c1ccccc1
inactive: [1] > 100 µM | [6] > 100 µM | [7] > 100 µM | [3] > 100 µM | [5] > 100 µM

NC(CCOCCP(=O)(O)O)C(=O)O (centres undefined)
inactive: [4] > 100 µM | [5] > 100 µM | [8] 57.7 µM

Nc1nc(=O)[nH][nH]1
inactive: [1] > 100 µM | [7] > 100 µM | [3] > 100 µM

Cc1n[nH]c(N)c1C(N)=O
inactive: [1] > 100 µM | [6] > 100 µM | [3] > 100 µM

O=C1NC(=O)C2(CCc3ccc(N(CCCl)CCCl)cc32)N1 (centres undefined)
inactive: [1] 19.5 µM | [7] 2.08 µM | [3] 22 µM

C[Si](C)(OCCS(=O)(=O)O)C1(Cc2cccc3ccccc23)S(=O)(=O)OCCOS1(=O)=O
inactive: [4] 18.1 µM | [7] 19.5 µM | [8] 17.1 µM

OC[C@H]1NC[C@@H](O)[C@@H](O)[C@H]1O
inactive: [4] > 100 µM | [7] > 100 µM | [5] > 100 µM | [8] > 100 µM
